# Results as given in patent US8357832B2, “F1B-TMIR plasmid vector and transgenic mouse” (National Health Research Institutes, priority 2009, dated 2013).
# Key:
# [1] = test system: TMIR expressing tissues (HSV1Δtk) of F1B-TMIR mice; test: [131I]FIAU γ-camera imaging of F1B-TMIR transgenic mice; format: in vivo, mouse
# From the text: FIG. 4. […] Image of young female mice #7, #29 (Right) was shown for comparison.
# Carrier-free [^131I] (2′-fluoro-2′-deoxy-1-β-D-arabinofuranosyl-5-iodouracil) ([^131I]FIAU) was synthesized from 5-trimethylstannyl-1-(2′-deoxy-2′-fluoro-1-β-D-arabinofuranosyl)-uracil (FTAU) by an oxidative iododestannylation method as previously described (Deng W P, Yang W K, Lai W F, et al. Non-invasive in vivo imaging with radiolabelled FIAU for monitoring cancer gene therapy using herpes simplex virus type 1 thymidine kinase and ganciclovir. Eur J Nucl Med Mol Imaging. January 2004; 31 (1):99-109). The radiochemical purity of [^131I]FIAU was >95%, as determined by thin layer chromatograph (TLC) method on a silica gel coated aluminum sheet using ethyl acetate-ethanol mixture (90:10, v/v) as the mobile phase. A Siemens E.CAM dual-head γ-camera, equipped with custom-made 1 mm pinhole collimator, was used for the animal γ-imaging. To block the thyroid uptake of radioiodine, mice were injected with sodium iodine saline (0.9% sodium iodine in normal saline, 1 ml/animal) 15 min prior to the intraperitoneal injection of 11.1 MBq [^131I] FIAU. The animal was laid in the prone position and 4 cm distant from the pinhole center to provide a full coverage of the body. […] The image was scanned one week after injection of probe to ensure adequate clearance of unwanted background radioactivity. […]
# [2] = test system: F1B-TMIR transfected CHO cells; test: Luciferase activity assay after GCV treatment (sensitivity to GCV, functioning HSV1Δtk); format: cell-based, Chinese hamster; conditions: low or high concentration of GCV (0.005 or 0.1 μg/ml), 72 h, normalized to β-gal
# Description: FIG. 1. (A) Structure of the F1B-TMIR transgenic vector. The restriction sites mentioned in the construction method are shown. (B) Fluorescent pictures of CHO cells transiently transfected by F1B-TMIR vector. Scale bar=100 μm. (C) The luciferase activity in F1B-TMIR transfected CHO cells following the incubation with GCV. The data shown were the luciferase activity normalized to the β-gal activity from a co-transfected RSV-β-gal vector. Error bars represent mean+SEM, n=3, *P<0.05, compared to the untreated group.
# Chinese hamster ovary […] (CHO-K1) were maintained in F-12 medium supplemented with 10% fetal bovine serum (FBS) and the antibiotics penicillin, streptomycin, and amophotericin B (PSA) in a 95% air and 5% CO2 humidified incubator. DNA vectors including a RSV β-galactosidase control vector for normalization of transfection efficiency were transfected into the cells using PolyFect (Qiagen) reagent by following manufacturer's protocol. […]
# The TMIR vectors driven by CMV or F1B promoter were constructed as foregoing description. […] There was a decrease in the number of cells expressing GFP and in the intensity of fluorescence in F1B-TMIR transfected cells than cells transfected by CMV-TMIR (FIG. 1B) as a result of weaker transactivity by FIB promoter. […]
# [3] = test system: CMV-TMIR transfected CHO cells; test: as above; format: cell-based, Chinese hamster; conditions: low or high concentration of GCV (0.005 or 0.1 μg/ml), 72 h, normalized to β-gal
# [4] = test system: MDA-MB231 cells that constitutively express large amount of eGFP-tk; conditions: cited from earlier work
# [5] = test system: ZR75-1 cells that constitutively express low amount of eGFP-tk; conditions: cited from earlier work
Compound,"uptake at head (γ imaging) ([1]; F1B-TMIR mice #2, #7, #29, one week after probe injection)","uptake in testis (γ imaging) ([1]; male F1B-TMIR mice, one week after intraperitoneal injection of 11.1 MBq probe, absent in female mice)",loss of luciferase activity [2] [%],loss of luciferase activity [3] [%],ED50 (the dose resulted in 50% of cell death after 7 days) [4] [ng/mL],ED50 (the dose resulted in 50% of cell death after 7 days) [5]
"O=c1[nH]c(=O)n([C@@H]2O[C@H](CO)[C@@H](O)[C@@H]2F)cc1[131I] [[^131I]FIAU, [^131I] (2′-fluoro-2′-deoxy-1-β-D-arabinofuranosyl-5-iodouracil)]",low uptake,strong uptake,,,,
"Nc1nc(O)c2ncn(COC(CO)CO)c2n1 [GCV, Ganciclovir]",,,35,45,5,around 0.1 μg/ml
